What was measured:
PRMT5/MEP50 = target: T1, PRMT5/MEP50 (Homo sapiens, UniProt O14744); experiment: PRMT5 Biochemical Assay (PRMT5/MEP50 enzyme assay on histone H4 peptide substrate, 3H-SAM Flashplate); settings: PRMT5 biochemical assay; read-out: Biochemical IC50
T1 construct: Flag-PRMT5; made in house; host or cells: Spodoptera frugiperda (SF9), baculovirus
Summary of the method: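 Sf9-expressed Flag-PRMT5/6His-MEP50 preincubated with compound 30 min at 25 °C, then methylation of biotinylated H4 1-15 peptide started with ³H-SAM in 20 mM Bicine pH 7.6, 1 mM TCEP, 0.005% BSG, 0.002% Tween20.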

[1] = system: symmetric di-methyl arginine in Z-138 cells; experiment: Z-138 Methylation Assay (In Cell Western for symmetric di-methyl arginine and DNA content); type: cell-based; settings: Homo sapiens, read-out: ICW EC50
Excerpt: Z-138 suspension cells were purchased from ATCC (American Type Culture Collection, Manassas, Va.). RPMI/Glutamax medium, penicillin-streptomycin, heat inactivated fetal bovine serum, and D-PBS were purchased from Life Technologies, Grand Island, N.Y., USA. Odyssey blocking buffer, 800CW goat anti-rabbit IgG (H+L) antibody, and Licor Odyssey infrared scanner were purchased from Licor Biosciences, Lincoln, Nebr., USA. Symmetric di-methyl arginine antibody was purchased from EMD Millipore, Billerica, Mass., USA. 16% Paraformaldehyde was purchased from Electron Microscopy Sciences, Hatfield, Pa., USA.
Z-138 suspension cells were maintained in growth medium (RPMI 1640 supplemented with 10% v/v heat inactivated fetal bovine serum and 100 units/mL penicillin-streptomycin) and cultured at 37° C. under 5% CO2.
Cell Treatment, in Cell Western (ICW) for Detection of Symmetric Di-Methyl Arginine and DNA Content.
Z-138 cells were seeded in assay medium at a concentration of 50,000 cells per mL to a 384-well cell culture plate with 50 μL per well. Compound (100 nL) from 384 well source plates was added directly to 384 well cell plate. Plates were incubated at 37° C., 5% CO2 for 96 hours. After four days of incubation, 40 μL of cells from incubated plates were added to poly-D-lysine coated 384 well culture plates (BD Biosciences 356697). Plates were incubated at room temperature for 30 minutes then incubated at 37° C., 5% CO2 for 5 hours. After the incubation, 40 μL per well of 8% paraformaldehyde in PBS (16% paraformaldahyde was diluted to 8% in PBS) was added to each plate and incubated for 30 minutes. Plates were transferred to a Biotek 405 plate washer and washed 5 times with 100 μL per well of wash buffer (1×PBS with 0.1% Triton X-100 (v/v)). Next 30 μL per well of Odyssey blocking buffer were added to each plate and incubated 1 hour at room temperature. Blocking buffer was removed and 20 μL per well of primary antibody was added (symmetric di-methyl arginine diluted 1:100 in Odyssey buffer with 0.1% Tween 20 (v/v)) and plates were incubated overnight (16 hours) at 4° C. Plates were washed 5 times with 100 μL per well of wash buffer. Next 20 μL per well of secondary antibody was added (1:200 800CW goat anti-rabbit IgG (H+L) antibody, 1:1000 DRAQ5 (Biostatus limited) in Odyssey buffer with 0.1% Tween 20 (v/v)) and incubated for 1 hour at room temperature. The plates were washed 5 times with 100 μL per well wash buffer then 1 time with 100 μL per well of water. Plates were allowed to dry at room temperature then imaged on the Licor Odyssey machine which measures integrated intensity at 700 nm and 800 nm wavelengths. Both 700 and 800 channels were scanned.
First, the ratio for each well was determined by:
Each plate included fourteen control wells of DMSO only treatment (minimum inhibition) as well as fourteen control wells for maximum inhibition treated with 3 μM of a reference compound (Background wells). The average of the ratio values for each control type was calculated and used to determine the percent inhibition for each test well in the plate. Reference compound was serially diluted three-fold in DMSO for a total of nine test concentrations, beginning at 3 μM. Percent inhibition was determined and IC50 curves were generated using triplicate wells per concentration of compound.

Z-138 cells = experiment: Z-138 Proliferation Assay (Cell Titer Glo, 5 days); type: cell-based; settings: Homo sapiens, 120 h
Excerpt: Z-138 Proliferation Assay
Z-138 suspension cells were purchased from ATCC (American Type Culture Collection, Manassas, Va.). RPMI/Glutamax medium, penicillin-streptomycin, heat inactivated fetal bovine serum were purchased from Life Technologies, Grand Island, N.Y., USA. V-bottom polypropylene 384-well plates were purchased from Greiner Bio-One, Monroe, N.C., USA. Cell culture 384-well white opaque plates were purchased from Perkin Elmer, Waltham, Mass., USA. Cell-Titer Glo® was purchased from Promega Corporation, Madison, Wis., USA. SpectraMax M5 plate reader was purchased from Molecular Devices LLC, Sunnyvale, Calif., USA.
Z-138 suspension cells were maintained in growth medium (RPMI 1640 supplemented with 10% v/v heat inactivated fetal bovine serum and cultured at 37° C. under 5% CO2. Under assay conditions, cells were incubated in assay medium (RPMI 1640 supplemented with 10% v/v heat inactivated fetal bovine serum and 100 units/mL penicillin-streptomycin) at 37° C. under 5% CO2.
For the assessment of the effect of compounds on the proliferation of the Z-138 cell line, exponentially growing cells were plated in 384-well white opaque plates at a density of 10,000 cells/ml in a final volume of 50 μl of assay medium. A compound source plate was prepared by performing triplicate nine-point 3-fold serial dilutions in DMSO, beginning at 10 mM (final top concentration of compound in the assay was 20 μM and the DMSO was 0.2%). A 100 nL aliquot from the compound stock plate was added to its respective well in the cell plate. […] After addition of compounds, assay plates were incubated for 5 days at 37° C., 5% CO2, relative humidity >90%.
Cell viability was measured by quantitation of ATP present in the cell cultures, adding 35 μl of Cell Titer Glo® reagent to the cell plates. Luminescence was read in the SpectraMax M5 microplate reader. The concentration of compound inhibiting cell viability by 50% was determined using a 4-parametric fit of the normalized dose response curves.

T1 sequence (O14744 with tags, fused parts or gaps): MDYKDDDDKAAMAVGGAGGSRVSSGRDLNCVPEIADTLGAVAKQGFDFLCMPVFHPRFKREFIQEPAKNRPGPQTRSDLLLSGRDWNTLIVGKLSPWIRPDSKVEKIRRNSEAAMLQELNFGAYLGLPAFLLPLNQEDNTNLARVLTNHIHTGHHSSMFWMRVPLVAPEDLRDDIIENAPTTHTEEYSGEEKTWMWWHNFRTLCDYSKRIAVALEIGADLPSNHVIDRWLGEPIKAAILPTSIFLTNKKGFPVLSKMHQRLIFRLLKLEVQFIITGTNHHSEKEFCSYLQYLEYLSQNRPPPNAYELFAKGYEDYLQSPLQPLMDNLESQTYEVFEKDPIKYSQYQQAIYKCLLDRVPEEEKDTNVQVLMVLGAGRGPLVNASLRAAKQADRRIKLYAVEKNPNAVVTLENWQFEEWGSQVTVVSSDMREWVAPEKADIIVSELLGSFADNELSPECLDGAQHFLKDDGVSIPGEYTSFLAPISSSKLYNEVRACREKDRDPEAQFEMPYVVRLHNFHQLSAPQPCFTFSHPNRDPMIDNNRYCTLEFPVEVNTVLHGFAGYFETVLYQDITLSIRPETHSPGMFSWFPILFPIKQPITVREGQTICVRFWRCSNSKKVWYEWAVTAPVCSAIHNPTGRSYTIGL
T1 sequence (Q9BQA1 with tags, fused parts or gaps partner limits assumed): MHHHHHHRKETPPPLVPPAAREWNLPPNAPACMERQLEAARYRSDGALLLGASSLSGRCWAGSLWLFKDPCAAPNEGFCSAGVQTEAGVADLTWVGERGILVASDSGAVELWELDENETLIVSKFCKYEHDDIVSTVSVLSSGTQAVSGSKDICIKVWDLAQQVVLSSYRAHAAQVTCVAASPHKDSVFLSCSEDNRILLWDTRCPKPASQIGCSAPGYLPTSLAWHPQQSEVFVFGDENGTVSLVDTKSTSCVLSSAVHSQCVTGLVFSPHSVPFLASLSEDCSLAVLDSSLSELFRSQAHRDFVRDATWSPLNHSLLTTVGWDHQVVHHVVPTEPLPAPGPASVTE

SMILES	IC50 (PRMT5/MEP50)	EC50 [1]	EC50 (Z-138 cells)
CN(C)c1cccc2c(S(=O)(=O)NC[C@H](N)Cc3ccccc3)cccc12 [Compound 4-7]	101 to 1000 nM	101 to 1000 nM	
CCOc1c(C)cc(S(=O)(=O)NCC2CCN(Cc3c(SC(C)C)nc4sccn34)CC2)cc1C [Compound 9-3]	< 100 nM		> 20000 nM
CC(=O)N1CCC(Nc2cc(C(=O)N(C)C[C@H](O)CN3CCc4ccccc4C3)ccn2)CC1 [Compound 10-9]	< 100 nM	< 100 nM	101 to 1000 nM
O=C(NCC(O)CN1CCc2ccccc2C1)c1ccc(OC2CCOC2)cc1 (stereo not shown) [1-10]	< 100 nM	< 100 nM	1000 to 10000 nM
CN(C)c1cccc2c(S(=O)(=O)NC3CC(=O)N(c4cccc(F)c4)C3)cccc12 (stereo not shown) [Compound 6-4]	101 to 1000 nM	1000 to 10000 nM	
NCc1nccn1Cc1cccc(Cl)c1 [Compound 2-13]	1000 to 10000 nM	> 1000 nM	> 5000 nM
CC1CC(Nc2cccc(C(=O)NC[C@H](O)CN3CCc4ccccc4C3)c2)CC(C)O1 (stereo partly shown) [Compound 2-9]	< 100 nM	< 100 nM	101 to 1000 nM
CN(C)c1cccc2c(S(=O)(=O)NC3CCN(Cc4ccco4)CC3)cccc12 [Compound 13-3]	101 to 1000 nM		> 20000 nM
CC(=O)N1CC(Nc2cc(C(=O)NCC(C)(O)CN3CCc4ccccc4C3)ncn2)C1 (stereo not shown) [Compound 6-9]	101 to 1000 nM	101 to 1000 nM	> 5000 nM
CC(=O)N1CCC(Nc2cc(C(=O)NC[C@@H](O)CN3CCc4ccccc4C3(C)C)ccn2)CC1 [Compound 13-9]	101 to 1000 nM	101 to 1000 nM	1000 to 10000 nM
CN1CCC(Nc2ccnc(C(=O)NC[C@H](O)CN3CCc4ccccc4C3)c2)CC1 [Compound 5-9]	< 100 nM	< 100 nM	> 5000 nM
CCOc1c(C)cc(S(=O)(=O)NCC2CCN(Cc3cc4cc(OC)ccc4nc3Cl)CC2)cc1C [Compound 15-3]	101 to 1000 nM	> 20000 nM	> 20000 nM
O=C(NC[C@H](O)CN1Cc2ccccc2C1)c1cncc(NC2CCN(CC(F)(F)F)CC2)c1 [Compound 6-11]	101 to 1000 nM	101 to 1000 nM	10000 to 50000 nM
CCOC(=O)c1ccc(NC(=O)CC2NC(N3CCN(c4ccccc4)CC3)=NC2=O)cc1 (stereo not shown) [Compound 20-14]	101 to 1000 nM	1000 to 10000 nM	> 20000 nM
CC(=O)N1CC(Nc2cc(C(=O)NC[C@@H](O)CN3CCc4ccccc4C3)ncn2)C1 [Compound 7-9]	< 100 nM	< 100 nM	1000 to 10000 nM
CN(C)c1cccc2c(S(=O)(=O)NC[C@@H](N)Cc3ccccc3)cccc12 [Compound 5-7, (S)—N-(2-amino-3-phenylpropyl)-5-(dimethylamino)naphthalene-1-sulfonamide]	< 100 nM	101 to 1000 nM	1000 to 10000 nM
O=S(=O)(NCC1CCN(Cc2ccco2)CC1)c1ccc(Oc2ccccc2)cc1 [Compound 8-3]	101 to 1000 nM		> 20000 nM

Reference: patent US20170198006A1, “PRMT5 INHIBITORS AND USES THEREOF” (Epizyme, Inc., priority 2014, published 2017)
